Measurements reported in patent EP0115820A2, “Cephalosporin derivatives and process for their preparation” (Kaken Pharmaceutical Co., Ltd., priority 1983, dated 1984).
Values after ≈ are worked out from the molar mass of the structure shown. Where two headings read alike, the source gives them in different places.

Tests used:
Assay in all cases: Minimum inhibitory concentration (MIC)
Assay type in all cases: cell-based
[1] = tested on: Pseudomonas aeruginosa Y-1
Source text: (§1) The cephalosporin derivatives of the present invention are novel substances, and the antimicrobial activities of their sodium salts are shown by the minimum inhibitory concentrations (MIC, µg/ml) in Table 1, as compared with a typical known cephalosporin compound.

[2] = tested on: Escherichia coli NIHJ JC-2
Source text: as §1

[3] = tested on: Pseudomonas aeruginosa E-2
Source text: as §1

[4] = tested on: Proteus vulgaris GN-76
Source text: as §1

[5] = tested on: Serratia marcescens No. 16-2
Source text: as §1

[6] = tested on: Staphylococcus aureus 209 P JC-1
Source text: as §1

[7] = tested on: Pseudomonas aeruginosa K-13
Source text: as §1

[8] = tested on: Klebsiella pneumoniae No. 42
Source text: as §1

[9] = Y1, Pseudomonas aeruginosa Y-1, bacterial suspension 10^6 cells/ml, sodium salts tested, read-out: Minimum inhibitory concentration
[10] = NIHJJC2, Escherichia coli NIHJ JC-2, bacterial suspension 10^6 cells/ml, sodium salts tested, read-out: Minimum inhibitory concentration
[11] = E2, Pseudomonas aeruginosa E-2, bacterial suspension 10^6 cells/ml, sodium salts tested, read-out: Minimum inhibitory concentration
[12] = GN76, Proteus vulgaris GN-76, bacterial suspension 10^6 cells/ml, sodium salts tested, read-out: Minimum inhibitory concentration
[13] = NO.162, Serratia marcescens No. 16-2, bacterial suspension 10^6 cells/ml, sodium salts tested, read-out: Minimum inhibitory concentration
[14] = 209PJC1, Staphylococcus aureus 209 P JC-1, bacterial suspension 10^6 cells/ml, sodium salts tested, read-out: Minimum inhibitory concentration
[15] = K13, Pseudomonas aeruginosa K-13, bacterial suspension 10^6 cells/ml, sodium salts tested, read-out: Minimum inhibitory concentration
[16] = Klebsiella pneumoniae No. 42, bacterial suspension 10^6 cells/ml, sodium salts tested, read-out: Minimum inhibitory concentration

Compound | MIC [1, 9] | MIC [2, 10] | MIC [3, 11] | MIC [4, 12] | MIC [5, 13] | MIC [6, 14] | MIC [7, 15] | MIC [8, 16] | MIC ([1]; Pseudomonas aeruginosa, Y1, read-out: Minimum inhibitory concentration) | MIC ([2]; Escherichia coli, NIHJJC2, read-out: Minimum inhibitory concentration) | MIC ([3]; Pseudomonas aeruginosa, E2, read-out: Minimum inhibitory concentration) | MIC ([4]; Proteus vulgaris, GN76, read-out: Minimum inhibitory concentration) | MIC ([5]; Serratia marcescens, NO.162, read-out: Minimum inhibitory concentration) | MIC ([6]; Staphylococcus aureus, 209PJC1, read-out: Minimum inhibitory concentration) | MIC ([7]; Pseudomonas aeruginosa, K13, read-out: Minimum inhibitory concentration) | MIC ([8]; Klebsiella pneumoniae, NO.42, read-out: Minimum inhibitory concentration)
Cn1nnnc1SCC1=C(C(=O)O)N2C(=O)[C@@H](NC(=O)C(NC(=O)c3ccc(O)c(O)c3)c3csc(N)n3)[C@H]2SC1 (mixture of isomers) [Example 2, 7β-[DL-2-(3,4-dihydroxybenzoylamino)-2-(2-aminothiazol-4-yl)acetamido]-3-(1-methyl-1H-tetrazol-5-yl-thiomethyl)-3-cephem-4-carboxylic acid] | 0.2 µg/mL | 0.78 µg/mL | 0.39 µg/mL | 6.25 µg/mL | 100 µg/mL | 0.39 µg/mL | 0.1 µg/mL | 0.2 µg/mL |  |  |  |  |  |  |  | 
CC(=O)Oc1ccc(C(=O)NC(C(=O)N[C@@H]2C(=O)N3C(C(=O)O)=C(CSc4nnnn4C)CS[C@H]23)c2csc(N)n2)cc1OC(C)=O (mixture of isomers) [Example 1, 7β-[DL-2-(3,4-diacetoxybenzoylamino)-2-(2-aminothiazol-4-yl)acetamido]-3-(1-methyl-1H-tetrazol-5-yl-thiomethyl)-3-cephem-4-carboxylic acid] | 0.05 µg/mL | 0.2 µg/mL | 0.2 µg/mL | 0.39 µg/mL | 6.25 µg/mL | 0.78 µg/mL | 0.2 µg/mL | 0.1 µg/mL |  |  |  |  |  |  |  | 
CO[C@@]1(NC(=O)C(NC(=O)c2cccc(OC(C)=O)c2OC(C)=O)c2csc(N)n2)C(=O)N2C(C(=O)O)=C(COC(C)=O)CS[C@@H]21 (mixture of isomers) [Example 8, 7α-methoxy-7β-(DL-2-(2,3-diacetoxy-benzoylamino)-2-(2-aminothiazol-4-yl)acetamido]-cephalosporic acid] | 3.12 µg/mL | 25 µg/mL | 1.56 µg/mL | 3.12 µg/mL | 3.12 µg/mL | 6.25 µg/mL | 6.25 µg/mL | 0.78 µg/mL |  |  |  |  |  |  |  | 
CC(=O)Oc1cccc(C(=O)NC(C(=O)N[C@@H]2C(=O)N3C(C(=O)O)=C(CSc4nnnn4C)CS[C@H]23)c2csc(N)n2)c1OC(C)=O (mixture of isomers) [Example 4, 7β-[DL-2-(2,3-diacetoxybenzoylamino)-2-(2-aminothiazol-4-yl)acetamidol-3-(l-methyl-lH-tetrazol-5-yl-thiomethyl)-3-cephem-4-carboxylic acid] | 0.78 µg/mL | 3.12 µg/mL | 1.56 µg/mL | 3.12 µg/mL | 200 µg/mL | 1.56 µg/mL | 0.39 µg/mL | 1.56 µg/mL |  |  |  |  |  |  |  | 
CO[C@@]1(NC(=O)CSCC#N)C(=O)N2C(C(=O)O)=C(CSc3nnnn3C)CS[C@@H]21 [Cefmetazole, reference compound] |  |  |  |  |  |  |  |  | 3200 µg/mL (≈ 6790 µM) | 0.78 µg/mL (≈ 1.65 µM) | 3200 µg/mL (≈ 6790 µM) | 3.12 µg/mL (≈ 6.62 µM) | > 50 µg/mL | 0.39 µg/mL (≈ 0.827 µM) | 3200 µg/mL (≈ 6790 µM) | 1.56 µg/mL (≈ 3.31 µM)
CO[C@@]1(NC(=O)C(NC(=O)c2ccc(OC(C)=O)c(OC(C)=O)c2)c2csc(N)n2)C(=O)N2C(C(=O)O)=C(COC(C)=O)CS[C@@H]21 (mixture of isomers) [Example 6, 7α-methoxy-7β-[DL-2-(3,4-diacetoxy-benzoylamino)-2-(2-aminothiazol-4-yl)acetamido]-cephalosporic acid] | 0.78 µg/mL | 3.12 µg/mL | 0.78 µg/mL | 12.5 µg/mL | 6.25 µg/mL | 1.56 µg/mL | 1.56 µg/mL | 0.39 µg/mL |  |  |  |  |  |  |  | 

Continued, in another order:

MIC [1, 9] | MIC [2, 10] | MIC [3, 11] | MIC [4, 12] | MIC [5, 13] | MIC [6, 14] | MIC [7, 15] | MIC [8, 16] | Compound | MIC ([1]; Pseudomonas aeruginosa, Y1, read-out: Minimum inhibitory concentration) | MIC ([2]; Escherichia coli, NIHJJC2, read-out: Minimum inhibitory concentration) | MIC ([3]; Pseudomonas aeruginosa, E2, read-out: Minimum inhibitory concentration) | MIC ([4]; Proteus vulgaris, GN76, read-out: Minimum inhibitory concentration) | MIC ([5]; Serratia marcescens, NO.162, read-out: Minimum inhibitory concentration) | MIC ([6]; Staphylococcus aureus, 209PJC1, read-out: Minimum inhibitory concentration) | MIC ([7]; Pseudomonas aeruginosa, K13, read-out: Minimum inhibitory concentration) | MIC ([8]; Klebsiella pneumoniae, NO.42, read-out: Minimum inhibitory concentration)
100 µg/mL | 3.12 µg/mL | 50 µg/mL | 6.25 µg/mL | > 200 µg/mL | 0.39 µg/mL | 25 µg/mL | 3.12 µg/mL | CC(=O)OCC1=C(C(=O)O)N2C(=O)[C@@H](NC(=O)C(NC(=O)c3ccccc3O)c3csc(N)n3)[C@H]2SC1 (mixture of isomers) [Example 22, 7β-[DL-2-(2-hydroxybenzoylamino)-2-(2-aminothiazol-4-yl)acetamido]cephalosporic acid] |  |  |  |  |  |  |  | 
0.2 µg/mL | 6.25 µg/mL | 0.2 µg/mL | 1.56 µg/mL | 0.78 µg/mL | 1.56 µg/mL | 0.39 µg/mL | 0.1 µg/mL | CO[C@@]1(NC(=O)C(NC(=O)c2ccc(O)c(O)c2)c2csc(N)n2)C(=O)N2C(C(=O)O)=C(CSc3nnnn3C)CS[C@@H]21 (mixture of isomers) [Example 12, 7α-methoxy-7β-[DL-2-(3,4-dihydroxy-benzoylamino)-2-(2-aminothiazol-4-yl)acetamido]-3-(l-methyl-lH-tetrazol-5-yl-thiomethyl)-3-cephem-4-carboxylic acid] |  |  |  |  |  |  |  | 
> 200 µg/mL | 6.25 µg/mL | > 200 µg/mL | 25 µg/mL | > 200 µg/mL | 0.39 µg/mL | > 200 µg/mL | 12.5 µg/mL | CC(=O)OCC1=C(C(=O)O)N2C(=O)[C@@H](NC(=O)C(NC(=O)c3cccc(O)c3)c3csc(N)n3)[C@H]2SC1 (mixture of isomers) [Example 23, 73-[DL-2-(3-hydroxybenzoylamino)-2-(2-aminothiazol-4-yl)acetamidolcephalosporic acid] |  |  |  |  |  |  |  | 
0.05 µg/mL | 0.39 µg/mL | 0.2 µg/mL | 0.39 µg/mL | 6.25 µg/mL | 0.39 µg/mL | 0.2 µg/mL | 0.05 µg/mL | CCOC(=O)Oc1ccc(C(=O)NC(C(=O)N[C@@H]2C(=O)N3C(C(=O)O)=C(COC(C)=O)CS[C@H]23)c2csc(N)n2)cc1OC(=O)OCC (mixture of isomers) [Example 19, 7β-[DL-2-(3,4-diethoxycarbonyloxy-benzoylamino)-2-(2-aminothiazol-4-yl)acetamido]-cephalosporic acid] |  |  |  |  |  |  |  | 
